Source: patent publication US8993779B2, “Positive allosteric modulators of MGLUR2” (Merck Sharp & Dohme Corp., priority 2010, dated 2015)

Target: T1, recombinant human mGluR2 (Homo sapiens, UniProt Q14416)
T1 construct: expressed in transfected cells
Test: FLIPR Ca2+ mobilization assay, potentiation of mGluR2 receptor
Assay type: cell-based
Details: CHO dhfr- cells expressing human mGluR2 and Gα16; potentiation after EC20 glutamate (900 nM); read-out: FLIPR EC50
Procedure: Activity in potentiating the mGluR2 receptor may be determined as follows. The compounds of the present invention are tested in a fluorescence laser imaging plate reader (FLIPR) based assay. This assay is a common functional assay to monitor Ca^2+ mobilization in whole cells expressing recombinant receptor coupled with a promiscuous G-protein. CHO dhfr-cells stably expressing recombinant human mGluR2 and Gα16 loaded with Fluo-4 AM (Invitrogen, Carlsbad Calif.) are treated with dose responses of compounds and the Ca^2+ response is monitored on a FLIPR384 (Molecular Devices, Sunnydale Calif.) for agonist activity. The potentiation response is monitored after a subsequent addition of an EC20 concentration of glutamate (900 nM). The maximum calcium response at each concentration of compound for agonist or potentiation are plotted as dose responses and the curves are fitted with a four parameters logistic equation giving EC50 and Hill coefficient using the iterative non linear curve fitting software program.

T1 sequence (Q14416 19-872): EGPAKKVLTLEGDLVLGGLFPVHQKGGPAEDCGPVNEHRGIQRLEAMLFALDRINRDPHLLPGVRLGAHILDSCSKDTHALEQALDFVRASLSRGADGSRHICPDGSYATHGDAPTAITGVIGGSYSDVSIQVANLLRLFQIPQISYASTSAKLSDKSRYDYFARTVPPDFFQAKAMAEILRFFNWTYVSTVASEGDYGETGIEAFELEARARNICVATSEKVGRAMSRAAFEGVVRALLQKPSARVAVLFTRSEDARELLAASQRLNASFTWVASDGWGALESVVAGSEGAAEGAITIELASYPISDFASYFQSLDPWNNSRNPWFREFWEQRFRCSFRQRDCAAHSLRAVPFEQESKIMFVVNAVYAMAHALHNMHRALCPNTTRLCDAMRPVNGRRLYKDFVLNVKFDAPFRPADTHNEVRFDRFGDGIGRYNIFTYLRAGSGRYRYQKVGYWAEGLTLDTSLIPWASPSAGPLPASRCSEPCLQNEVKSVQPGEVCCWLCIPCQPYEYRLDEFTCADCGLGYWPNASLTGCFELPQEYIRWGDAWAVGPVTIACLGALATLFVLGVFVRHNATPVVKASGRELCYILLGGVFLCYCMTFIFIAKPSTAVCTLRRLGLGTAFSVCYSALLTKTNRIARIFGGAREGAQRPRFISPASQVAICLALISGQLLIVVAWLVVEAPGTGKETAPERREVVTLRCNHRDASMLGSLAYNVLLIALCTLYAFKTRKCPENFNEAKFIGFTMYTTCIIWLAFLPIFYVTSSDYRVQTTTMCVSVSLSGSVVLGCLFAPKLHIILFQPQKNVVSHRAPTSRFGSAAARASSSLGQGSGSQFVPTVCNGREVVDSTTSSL

Row | EC50 | Structure (SMILES)
1 | 0.126 µM | Cn1c(=O)n(CC(C)(C)C)c2ccc(-c3ncccc3C(F)(F)F)cc21 [Example 1-148, 1-(2,2-dimethylpropyl)-3-methyl-5-[3-(trifluoromethyl)pyridin-2-yl]-1,3-dihydro-2H-benzimidazol-2-one]
2 | 2.66 µM | COc1ncc(-c2ccc3c(c2)n(C)c(=O)n3CC(C)(C)C)c(OC)n1 [Example 1-61, 5-(2,4-dimethoxypyrimidin-5-yl)-1-(2,2-dimethylpropyl)-3-methyl-1,3-dihydro-2H--benzimidazol-2-one]
3 | 0.496 µM | Cn1c(=O)n(CC(C)(C)C)c2ccc(-c3cccc(Oc4cc(C(F)(F)F)ccn4)c3)cc21 [Example 2-4, 1-(2,2-dimethylpropyl)-3-methyl-5-(3-{[4-(trifluoromethyl)pyridin-2-yl]oxy}phenyl)-1,3-dihydro-2H-benzimidazol-2-one]
4 | 0.041 µM | Cc1ccc(-c2ccc3c(c2)n(C)c(=O)n3CC(C)(C)C)c(C#N)c1 [Example 1-94, 2-[1-(2,2-dimethylpropyl)-3-methyl-2-oxo-2,3-dihydro-1H-benzimidazol-5-yl]-5-methylbenzonitrile]
5 | 0.129 µM | Cn1c(=O)n(CC(C)(C)C)c2ccc(-c3cccc(C(O)c4ccccc4)c3)cc21 (stereo not shown) [Example 10-3, 1-(2,2-dimethylpropyl)-5-{3-[hydroxy(phenyl)methyl]phenyl}-3-methyl-1,3-dihydro-2H-benzimidazol-2-one]
6 | 0.225 µM | Cn1c(=O)n(CC(C)(C)C)c2ccc(-c3cccc(C(C)(O)c4ccccc4)n3)cc21 (stereo not shown) [Example 10-5, 1-(2,2-dimethylpropyl)-5-[6-(1-hydroxy-1-phenylethyl)pyridin-2-yl]-3-methyl-1,3-dihydro-2H-benzimidazol-2-one]
7 | 3.65 µM | Cn1c(=O)n(CC(C)(C)C)c2ccc(-c3cccc(OCc4ccccc4C(F)(F)F)c3)cc21 [Example 3-3, 1-(2,2-dimethylpropyl)-3-methyl-5-(3-{[2-(trifluoromethyl)benzyl]oxy}phenyl)-1,3-dihydro-2H-benzimidazol-2-one]
8 | 0.04 µM | Cn1c(=O)n(CC(C)(C)C)c2ccc(-c3cc(Oc4cccc(C#N)n4)ccc3C#N)c(F)c21 [Example 8-5, 6-{4-cyano-3-[1-(2,2-dimethylpropyl)-4-fluoro-3-methyl-2-oxo-2,3-dihydro-1H-benzimidazol-5-yl]phenoxy}pyridine-2-carbonitrile]
9 | 1.25 µM | Cn1c(=O)n(CC(C)(C)C)c2ccc(-c3cccc(Oc4ccccc4)c3)cc21 [Example 4-8, 1-(2,2-dimethylpropyl)-3-methyl-5-(3-phenoxyphenyl)-1,3-dihydro-2H-benzimidazol-2-one]
10 | 0.182 µM | Cn1c(=O)n(CC(C)(C)C)c2ccc(-c3ccc4c(c3)CN(C(=O)OC(C)(C)C)CC4)cc21 [Example 1-187, tert-butyl 7-[1-(2,2-dimethylpropyl)-3-methyl-2-oxo-2,3-dihydro-1H-benzimidazol-5-yl]-3,4-dihydroisoquinoline-2(1H)-carboxylate]
11 | 0.364 µM | Cn1c(=O)n(CC(C)(C)C)c2ccc(-c3cncc(Oc4ccc(C#N)nc4)n3)cc21 [Example 5-22, 5-({6-[1-(2,2-dimethylpropyl)-3-methyl-2-oxo-2,3-dihydro-1H-benzimidazol-5-yl]pyrazin-2-yl}oxy)pyridine-2-carbonitrile]
12 | 0.781 µM | CN1CCN(c2ccc(-c3ccc4c(c3F)n(C)c(=O)n4CC3(C)CC3)cn2)CC1 [Example 7-19, 4-fluoro-3-methyl-1-[(1-methylcyclopropyl)methyl]-5-[6-(4-methylpiperazin-1-yl)pyridin-3-yl]-1,3-dihydro-2H-benzimidazol-2-one]
13 | 0.264 µM | N#CCn1c(=O)n(CC2CC2)c2ccc(-c3ccccc3)cc21 [Example 1-9, [3-(cyclopropylmethyl)-2-oxo-6-phenyl-2,3-dihydro-1H-benzimidazol-1-yl]acetonitrile]
14 | 0.077 µM | Cn1c(=O)n(CC2CC2)c2ccc(-c3ccncc3C(F)(F)F)c(F)c21 [Example 7-47, 1-(cyclopropylmethyl)-4-fluoro-3-methyl-5-[3-(trifluoromethyl)pyridin-4-yl]-1,3-dihydro-2H-benzimidazol-2-one]
15 | 0.041 µM | Cn1c(=O)n(CC(C)(C)C)c2ccc(-c3cc(C#N)cc(Oc4ccnc(C#N)c4)c3)cc21 [Example 2-38, 4-{3-cyano-5-[1-(2,2-dimethylpropyl)-3-methyl-2-oxo-2,3-dihydro-1H-benzimidazol-5-yl]phenoxy}pyridine-2-carbonitrile]
16 | 0.045 µM | Cn1c(=O)n(-c2cccc(C(F)(F)F)c2)c2ccc(-c3ccccc3C#N)cc21 [Example 6-9, 2-{3-methyl-2-oxo-1-[3-(trifluoromethyl)phenyl]-2,3-dihydro-1H-benzimidazol-5-yl}benzonitrile]
17 | 3.35 µM | CN1CCCC(Oc2cccc(-c3ccc4c(c3)n(C)c(=O)n4CC(C)(C)C)n2)C1 (stereo not shown) [Example 5-12, 1-(2,2-dimethylpropyl)-3-methyl-5-{6-[(1-methylpiperidin-3-yl)oxy]pyridin-2-yl}-1,3-dihydro-2H-benzimidazol-2-one]

Same assay, conditions: potentiation after EC20 glutamate (900 nM); read-out: EC50 potentiating the mGluR2 receptor in the FLIPR assay

Row | EC50 | Structure (SMILES)
18 | 12 µM | Cc1ccccc1-c1ccc2c(c1)n(C)c(=O)n2C1CCN(c2ncccn2)CC1 [Example 1-201, 3-methyl-5-(2-methylphenyl)-1-(1-pyrimidin-2-ylpiperidin-4-yl)-1,3-dihydro-2H-benzimidazol-2-one]
19 | > 30 µM | Cc1ccccc1-c1ccc2c(c1)n(C)c(=O)n2C1CCNCC1 [Example 1-202, 3-methyl-5-(2-methylphenyl)-1-piperidin-4-yl-1,3-dihydro-2H-benzimidazol-2-one]
20 | 20 µM | Cn1c(=O)n(C2CCN(c3ncccn3)CC2)c2ccc(-c3ccccc3C(N)=O)cc21 [Example 1-206, 2-[3-methyl-2-oxo-1-(1-pyrimidin-2-ylpiperidin-4-yl)-2,3-dihydro-1H-benzimidazol-5-yl]benzamide]
21 | > 30 µM | Cn1c(=O)n(C2CCNCC2)c2ccc(-c3ccccc3C(N)=O)cc21 [Example 1-203, 2-(3-methyl-2-oxo-1-piperidin-4-yl-2,3-dihydro-1H-benzimidazol-5-yl)benzamide]
22 | > 30 µM | Cc1ccccc1-c1ccc2c(c1)n(C)c(=O)n2C1CCN(C(=O)OC(C)(C)C)CC1 [Example 1-205, tert-butyl 4-[3-methyl-5-(2-methylphenyl)-2-oxo-2,3-dihydro-1H-benzimidazol-1-yl]piperidine-1-carboxylate]
